Structures are written as SMILES. Active and inactive are the calls of the source. No cut-off for these calls is given here.

The subject of data set [1] is HeLa. Put plainly: Cytotoxicity against human HeLa cells after 24 hrs by XTT assay. Type of data set: functional, cell-based.
Data set [2] in a line: Cellular uptake in perinuclear region of cytoplasm in human HeLa cells at 1 uM after 1 hr by fluorescence microscopic analysis. Type of data set: ADME, cell-based.
The nature of data set [3]: Cytotoxicity against human NCI60 cells. Type of data set: functional, cell-based.
Data set [4] is described as follows: Cellular uptake in perinuclear region of cytoplasm in human HeLa cells at 0.13 to 1 uM after 1 hr by fluorescence microscopic analysis. Type of data set: ADME, cell-based.
A short description of data set [5]: Cellular uptake in human HeLa cell golgi complex at 1 uM by BODIPY TR-ceramide-based fluorescence microscopic analysis. Type of data set: ADME.
Data set [6] can be described thus: Cellular uptake in human HeLa cell mitochondria at 1 uM by […]-based fluorescence microscopic analysis. Type of data set: ADME.
Data set [7] in a line: Cellular uptake in perinuclear region of cytoplasm in human HeLa cells at 0.5 uM after 10 mins by fluorescence microscopic analysis. Type of data set: ADME, cell-based.
For data set [8], the system named is HeLa. Put plainly: Cellular uptake in human HeLa cell lysate at 1 uM after 1 hr by fluorescence spectroscopic analysis. Type of data set: ADME, cell-based.
Data set [9] concerns HeLa. Briefly: Cellular uptake in human HeLa cells at 0.5 uM at 4 degC after 30 mins by fluorescence microscopic analysis. Type of data set: ADME, cell-based. The settings on record: 0.5 h.
In data set [10] the test system is HeLa. Put plainly: Cellular uptake in human HeLa cells at 0.5 uM at 37 degC after 30 mins by fluorescence microscopic analysis. Type of data set: ADME, cell-based. Particulars: 0.5 h.
The nature of data set [11]: Cellular uptake in human HeLa cell endoplasmic reticulum at 1 uM by […] staining-based fluorescence microscopic analysis. Type of data set: ADME.

Consider `COC(=O)CN(C)c1ccc(S(=O)(=O)N(C)C)c2nonc12`, for which the inhibition entry in the data set on HeLa [1] was “inactive”. The Drug uptake entry in data set [2] was “Not Active”.
On to `COc1ccc(C(=O)O[C@H]2[C@H](O[C@@H]3[C@@H](OC(C)=O)[C@H](O[C@H]4C[C@H]5[C@@H]6CC=C7C[C@@H](O)CC[C@]7(C)[C@H]6CC[C@]5(C)[C@@]4(O)[C@H](C)C(=O)CCC(C)C)OC[C@@H]3O)OC[C@@H](O)[C@@H]2O)cc1`, for which the figures for the IC50 (in [3]; in the data set on HeLa [1]) were 0.78 nM and 2.6 nM, respectively.
On to `COc1ccc(C(=O)O[C@H]2[C@H](O[C@@H]3[C@@H](OC(C)=O)[C@H](O[C@H]4C[C@H]5[C@@H]6CC=C7C[C@@H](O)CC[C@]7(C)[C@H]6CC[C@]5(C)[C@@]4(O)[C@H](C)C(=O)CCC(C)C)OC[C@@H]3O)OC[C@@H](O)[C@@H]2OC(=O)CN(C)c2ccc(S(=O)(=O)N(C)C)c3nonc23)cc1`, for which the Drug uptake result is “Active” in data set [4]; “Active” in data set [5]; “Not Active” in [6]; “Active” in data set [7]; “Active” with HeLa [8]; “Not Active” with HeLa [9]. Besides, the Drug uptake entry (in the data set with HeLa [10]; in data set [11]) was “Active” throughout. For the same molecule, the 50% inhibitory concentration (IC50) in the data set with HeLa [1] is 5 nM.

For the origin of these results see ChEMBL document CHEMBL3232784, “Fluorescent analog of OSW-1 and its cellular localization” (Bioorg Med Chem Lett, 2014).
